Non-standard residues stand in square brackets, D forms with d. Residues, ends and D or L forms follow the SMILES beside them. *: point of attachment. Gly(N-(3-decanoyloxypropyl)) = CCCCCCCCCC(=O)OCCCNCC(=O)O; N(3-lauroyloxypropyl)Gly = CCCCCCCCCCCC(=O)OCCCNCC(=O)O; N(3-imidazol-1-ylpropyl)Gly = O=C(O)CNCCCn1ccnc1; Gly(N-3-morpholinopropyl) = O=C(O)CNCCCN1CCOCC1; N(2-ethylhexyl)Gly = CCCCC(CC)CNCC(=O)O; Gly(N-dodecyl) = CCCCCCCCCCCCNCC(=O)O; NDecylGly = CCCCCCCCCCNCC(=O)O; NHexGly = CCCCCCNCC(=O)O; For = O=C*
Tests used:
[1] = Peptoid quantity remaining in liver by HPLC-TOF mass spectrometry; format: in vivo; settings: liver homogenate
Protocol: Peptoid quantity in liver was determined via high-performance liquid chromatography coupled with time-of-flight mass spectrometer (HPLC-TOF). The entire liver was weighed, and then two sections were isolated using a provided biopsy punch for liver homogenization. Liver homogenate sample was prepared by resuspending 20 mg liver tissue in 400 μL extraction solvent (IPA/MeOH=8/2) containing an internal standard (400 pg/μL) followed by bead homogenization (45 sec per cycle for 3-4 cycles). Homogenized samples were centrifuged at 12,000 rpm for 8 min at 6 °C. The resulting supernatant was collected and stored at −20 °C for further LC analysis. 5 μL of the resulting supernatant sample from solid or liquid tissue was injected into a BEH C8 column on an Agilent 1290 Infinity II liquid chromatograph coupled with an Agilent 6230 LC-TOF system. Concentrations of peptoids were determined by a linear calibration curve (linear range:0.2-50 μg/g for solid tissue). Standard calibration curve solutions were prepared by spiking untreated liver followed by homogenization and centrifugation.

[2] = Delivery vehicle size and polydispersity by dynamic light scattering; format: physicochemical; settings: DLS in PBS; peptoid:DSPC:Cholesterol:DMG-PEG2000 weight ratio 20:1.79:7.16:1.84, mRNA
Method in brief: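 LNPs made by microfluidic mixing of ethanolic peptoid/DSPC/cholesterol/DMG-PEG2000 (20:1.79:7.16:1.84 by weight) with mRNA in 10 mM citrate pH 5.0 at 1:3 by volume, then dialyzed overnight at 4 °C against tris-sucrose pH 7.4. Size and PDI read by dynamic light scattering in PBS.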

[3] = tested on: mRNA; assay: mRNA encapsulation (modified Quant-iT RiboGreen assay); format: physicochemical; settings: RiboGreen, without vs with Triton X-100
Method in brief: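 Peptoid nanoparticles were incubated with Triton X-100 for 10 min to release entrapped mRNA, then mixed with RiboGreen reagent and read by fluorescence (ex 485 nm/em 530 nm). Percent encapsulation was derived from the ratio of fluorescence without versus with Triton X-100.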

[4] = tested on: luciferase; assay: Luciferase expression after local (intramuscular or subcutaneous) administration of mRNA; format: in vivo; settings: mRNA 0.01 mpk, 6 hours; for IM Flux: intramuscular; for SC Flux: subcutaneous
Method in brief: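 Female Balb/c mice (6-8 weeks) received fLuc mRNA in aminolipidated peptoid Nutshells at 0.01 mpk subcutaneously or intramuscularly, or 0.1 mpk intratumorally. At 6 hours, anesthetized mice were given D-luciferin IP and imaged 10 minutes later; harvested organs were also imaged and total photon flux quantified in regions of interest.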

[5] = tested on: hEPO; assay: Quantification of hEPO in serum after IV injection of mRNA (Human EPO ELISA); format: in vivo; settings: Balb/c mice, 2.5 μg mRNA IV, serum after 6 hours
Protocol: Balb/c mice were treated with 2.5 μg of mRNA coding for human erythropoiten via IV injection according to a similar method as in Example 4. hEPO protein in the serum was quantified after 6 hours using the Human EPO ELISA Kit from Invitrogen (catalog #BMS2035-2). Wash buffer (PBS with 1% tween 20) and assay buffer (PBS with 1% tween 20, 10% BSA) were prepared from a 20× concentrate with milli-Q water. Serum samples were diluted with PBS according to expected EPO concentration, with a 50× dilution for low expression samples and up to a 30,000× dilution for samples expected to have high expression. Microwell strips were washed in a plate washer with wash buffer and tapped on an absorbent pad to remove excess buffer. 100 μL of sample diluent were added to each well that will be used for the standard curve. 50 μL of sample diluent was added to each sample well.
The standard curve was prepared by reconstituting the human erythropoietin standard by adding the volume of water listed on the vial label. Standard was swirled gently and allowed to reconstitute for 10 minutes prior to use, then 100 μL is added to standard wells and mixed well. 100 μL from standard wells were then transferred to sample wells and mixed well. This was repeated 5 times to produce 2 columns of standard dilutions from 100 to 1.6 mIU/mL. 100 μL was discarded from the last microwells. The final 2 wells contained 100 μL of sample diluent and served as a blank. An external standard was also included to facilitate a mIU/mL conversion to ng/mL. The same serial dilution method was repeated starting with the external standard at 6.25 ng/mL. Once the standards were added, 50 μL of each sample was added in duplicate to the sample wells. Next, the biotin-conjugate was prepared by diluting 1:100 in assay buffer. 50 μL of biotin-conjugate was added to all wells and the plate was covered with a plate seal and shaken at room temperature for 1 hour. During the last few minutes of shaking, streptavidin-HRP was prepared by diluting 1:100 in assay buffer. The plate was washed on a plate washer and tapped on an absorbent pad to remove remaining wash buffer.
100 μL of the diluted streptavidin-HRP was added to each well and the plate was sealed and shaken for 15 minutes at room temperature. After 15 minutes, the plate seal was removed and the plate was washed on a plate washer and remaining wash buffer tapped out on an absorbent pad. 100 μL of TMB substrate was added to all wells and the plate was incubated for 10 minutes at room temperature out of direct light. Color development was checked every few minutes and the assay was stopped when the highest standard was dark blue. The reaction was stopped by pipetting 100 μL of stop solution into each well. Immediately after stop solution was added, the plate was gently tapped to ensure the solution was mixed. Absorbance was then read at 450 nm for each well. A standard curve was plotted for both the kit-provided standards (mIU/mL) and the external standard (ng/mL) and fit using Prism. Sample absorbances that fell within the standard curve were interpolated and adjusted for dilution (including a 2× assay dilution). Samples that were not within the standard curve were repeated at an adjusted dilution.

[6] = tested on: firefly luciferase; assay: In vivo firefly luciferase expression after intravenous injection of fLuc mRNA delivery vehicles (IVIS imaging); design: species or system female Balb/c mice; settings: mice, 2.5 ug fLuc mRNA intravenously, 6 hours post-injection
Method in brief: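 Female Balb/c mice (6-8 weeks) given 2.5 ug fLuc mRNA in Nutshells IV. At 6 hours, IP D-luciferin (30 mg/mL, 10 μL/g) under isoflurane; IVIS imaging 10 minutes later, then harvested organs imaged ex vivo. Read-out: total photon flux in regions of interest.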

SMILES: CCCCCCCCCCCC(=O)OCCCN(CC(=O)N(CCCOC(=O)CCCCCCCCCCC)CC(=O)N(CCCCCC)CC(=O)N(CCCOC(=O)CCCCCCCCCCC)CC(=O)N(CCCOC(=O)CCCCCCCCCCC)CC(=O)N(CCCCCC)CC(N)=O)C(=O)CNCCCn1ccnc1 [Compound 73] (H-[N(3-imidazol-1-ylpropyl)Gly][N(3-lauroyloxypropyl)Gly][N(3-lauroyloxypropyl)Gly][NHexGly][N(3-lauroyloxypropyl)Gly][N(3-lauroyloxypropyl)Gly][NHexGly]-NH2)
- % of injected dose remaining in liver [1]: 10.58%
- PDI [2]: 0.289
- Particle Size [2]: 111.2 nm
- mean percent encapsulation of RNA [3]: 66.2%
- IM Flux [4]: 5.36E+07 p/s
- SC Flux [4]: 6.38E+07 p/s
- hEPO [5]: 27.8 ng/mL

SMILES: CCCCCCCCCCCC(=O)OCCCN(C=O)CC(=O)N(CCCOC(=O)CCCCCCCCCCC)CC(=O)N(CC(=O)N(CCCN1CCOCC1)CC(=O)N(CCCOC(=O)CCCCCCCCCCC)CC(=O)N(CCCOC(=O)CCCCCCCCCCC)CC(=O)N(CC(N)=O)CC(CC)CCCC)CC(CC)CCCC (stereo not drawn) [Compound 81] (For-[N(3-lauroyloxypropyl)Gly][N(3-lauroyloxypropyl)Gly][N(2-ethylhexyl)Gly][Gly(N-3-morpholinopropyl)][N(3-lauroyloxypropyl)Gly][N(3-lauroyloxypropyl)Gly][N(2-ethylhexyl)Gly]-NH2)
- % of injected dose remaining in liver [1]: 6.17%
- Total Flux [6]: 1.89E+08 p/s
- IM Flux [4]: 2.11E+08 p/s
- SC Flux [4]: 6.97E+07 p/s
- hEPO [5]: 52 ng/mL

SMILES: CCCCCCCCCCCCN(C=O)CC(=O)N(CCCOC(=O)CCCCCCCCCCC)CC(=O)N(CC(=O)N(CCCn1ccnc1)CC(=O)N(CC(=O)N(CCCOC(=O)CCCCCCCCCCC)CC(=O)N(CCCCCCCCCCCC)CC(N)=O)CC(CC)CCCC)CC(CC)CCCC (stereo not drawn) [Compound 85] (For-[Gly(N-dodecyl)][N(3-lauroyloxypropyl)Gly][N(2-ethylhexyl)Gly][N(3-imidazol-1-ylpropyl)Gly][N(2-ethylhexyl)Gly][N(3-lauroyloxypropyl)Gly][Gly(N-dodecyl)]-NH2)
- % of injected dose remaining in liver [1]: 40.01%
- PDI [2]: 0.102
- Particle Size [2]: 81.1 nm
- mean percent encapsulation of RNA [3]: 0.0%
- IM Flux [4]: 5.99E+07 p/s
- SC Flux [4]: 4.21E+07 p/s
- hEPO [5]: 26.3 ng/mL

SMILES: CCCCCCCCCCN(C=O)CC(=O)N(CCCOC(=O)CCCCCCCCC)CC(=O)N(CC(=O)N(CCCN1CCOCC1)CC(=O)N(CC(=O)N(CCCOC(=O)CCCCCCCCC)CC(=O)N(CCCCCCCCCC)CC(N)=O)CC(CC)CCCC)CC(CC)CCCC (stereo not drawn) [Compound 117] (For-[NDecylGly][Gly(N-(3-decanoyloxypropyl))][N(2-ethylhexyl)Gly][Gly(N-3-morpholinopropyl)][N(2-ethylhexyl)Gly][Gly(N-(3-decanoyloxypropyl))][NDecylGly]-NH2)
- PDI [2]: 0.156
- Particle Size [2]: 78.4 nm
- mean percent encapsulation of RNA [3]: 49.8%
- Total Flux [6]: 5.14E+09 p/s
- IM Flux [4]: 2.10E+08 p/s
- SC Flux [4]: 6.43E+08 p/s
- hEPO [5]: 685 ng/mL

SMILES: CCCCCCCC(=O)OCCCN(C=O)CC(=O)N(CCCOC(=O)CCCCCCC)CC(=O)N(CCc1ccccc1)CC(=O)N(CC(=O)N(CCCN1CCOCC1)CC(=O)N(CCCOC(=O)CCCCCCC)CC(=O)N(CCc1ccccc1)CC(=O)N(CCCOC(=O)CCCCCCC)CC(=O)N(CC(N)=O)CC(CC)CCCC)CC(CC)CCCC (stereo not drawn) [Compound 125]
- PDI [2]: 0.111
- Particle Size [2]: 86.2 nm
- mean percent encapsulation of RNA [3]: 82.1%
- Total Flux [6]: 2.12E+09 p/s
- IM Flux [4]: 9.45E+07 p/s
- SC Flux [4]: 8.55E+07 p/s
- hEPO [5]: 13.4 ng/mL
